From patent publication US11524961B2, “JAK kinase inhibitor and preparation method and use thereof” (Shanghai Longwood Biopharmaceuticals Co., Ltd., priority 2017, dated 2022)
Like-named read-outs stand apart in the source and are kept apart here.

Key:
JAK3 = JAK3 (Homo sapiens (Human), UniProt P52333); experiment: JAK3 enzyme activity inhibition (LANCE Ultra kinase assay); conditions: read-out: JAK3 inhibitory activity IC50
JAK2 = JAK2 (Homo sapiens (Human), UniProt O60674); experiment: JAK2 enzyme activity inhibition (LANCE Ultra kinase assay)
Sequence of JAK2 (O60674 whole entry): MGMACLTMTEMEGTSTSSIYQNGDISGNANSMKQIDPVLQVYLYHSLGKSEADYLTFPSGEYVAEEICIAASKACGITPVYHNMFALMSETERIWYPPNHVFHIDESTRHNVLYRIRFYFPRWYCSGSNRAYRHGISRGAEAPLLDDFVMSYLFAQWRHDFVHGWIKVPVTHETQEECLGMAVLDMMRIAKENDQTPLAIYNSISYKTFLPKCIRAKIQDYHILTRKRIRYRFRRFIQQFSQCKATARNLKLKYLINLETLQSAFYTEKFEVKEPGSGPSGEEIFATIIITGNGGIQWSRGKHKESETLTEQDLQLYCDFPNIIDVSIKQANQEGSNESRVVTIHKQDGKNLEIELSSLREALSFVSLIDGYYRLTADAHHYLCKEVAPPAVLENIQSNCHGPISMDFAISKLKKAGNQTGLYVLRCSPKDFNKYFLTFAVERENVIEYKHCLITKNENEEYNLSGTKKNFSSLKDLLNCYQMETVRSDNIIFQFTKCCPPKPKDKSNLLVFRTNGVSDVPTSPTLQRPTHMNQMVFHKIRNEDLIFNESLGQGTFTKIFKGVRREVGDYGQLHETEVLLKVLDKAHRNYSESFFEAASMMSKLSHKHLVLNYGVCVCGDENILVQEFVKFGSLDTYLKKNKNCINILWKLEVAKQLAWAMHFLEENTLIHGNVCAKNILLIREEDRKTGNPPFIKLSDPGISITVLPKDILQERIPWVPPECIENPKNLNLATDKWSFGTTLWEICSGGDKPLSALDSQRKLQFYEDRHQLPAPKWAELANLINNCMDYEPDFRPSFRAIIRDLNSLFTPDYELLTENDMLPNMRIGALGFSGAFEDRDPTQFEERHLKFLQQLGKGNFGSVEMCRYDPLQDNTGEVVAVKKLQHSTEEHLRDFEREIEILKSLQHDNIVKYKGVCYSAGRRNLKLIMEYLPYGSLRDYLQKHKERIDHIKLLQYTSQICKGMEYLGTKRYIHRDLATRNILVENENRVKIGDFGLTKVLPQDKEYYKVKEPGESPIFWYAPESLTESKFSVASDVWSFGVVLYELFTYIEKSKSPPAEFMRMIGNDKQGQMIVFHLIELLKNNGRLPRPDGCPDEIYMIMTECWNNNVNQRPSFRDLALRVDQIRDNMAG

Sequence of JAK3 (P52333 whole entry): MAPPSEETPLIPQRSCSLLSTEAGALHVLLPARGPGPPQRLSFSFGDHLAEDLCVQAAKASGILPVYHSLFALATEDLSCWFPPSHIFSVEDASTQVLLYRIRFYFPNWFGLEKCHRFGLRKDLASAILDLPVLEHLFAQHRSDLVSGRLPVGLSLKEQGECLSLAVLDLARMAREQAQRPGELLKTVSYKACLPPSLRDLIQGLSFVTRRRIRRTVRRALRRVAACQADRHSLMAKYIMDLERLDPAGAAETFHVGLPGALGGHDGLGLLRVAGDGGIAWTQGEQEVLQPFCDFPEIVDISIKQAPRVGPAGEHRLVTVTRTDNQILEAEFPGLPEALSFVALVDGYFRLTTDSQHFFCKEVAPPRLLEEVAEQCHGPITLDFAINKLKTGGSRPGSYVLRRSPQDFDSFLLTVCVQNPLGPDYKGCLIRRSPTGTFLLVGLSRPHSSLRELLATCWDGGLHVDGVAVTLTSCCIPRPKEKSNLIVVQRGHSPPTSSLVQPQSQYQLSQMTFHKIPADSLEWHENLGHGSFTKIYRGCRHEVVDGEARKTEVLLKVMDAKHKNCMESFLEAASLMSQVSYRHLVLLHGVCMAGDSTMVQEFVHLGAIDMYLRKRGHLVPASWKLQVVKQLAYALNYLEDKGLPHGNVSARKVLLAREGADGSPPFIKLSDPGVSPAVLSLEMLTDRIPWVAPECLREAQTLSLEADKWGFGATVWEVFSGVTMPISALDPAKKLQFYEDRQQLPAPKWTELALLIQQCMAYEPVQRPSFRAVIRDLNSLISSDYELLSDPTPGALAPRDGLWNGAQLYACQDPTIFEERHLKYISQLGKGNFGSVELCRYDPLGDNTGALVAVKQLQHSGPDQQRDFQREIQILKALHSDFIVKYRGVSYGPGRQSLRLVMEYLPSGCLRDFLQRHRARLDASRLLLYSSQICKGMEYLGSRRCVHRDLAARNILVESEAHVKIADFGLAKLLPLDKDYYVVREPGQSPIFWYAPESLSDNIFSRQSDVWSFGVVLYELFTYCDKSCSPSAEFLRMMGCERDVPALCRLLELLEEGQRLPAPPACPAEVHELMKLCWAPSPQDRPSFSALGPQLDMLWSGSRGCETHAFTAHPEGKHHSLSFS

Row | SMILES | IC50 (JAK3) | IC50 (JAK2) | IC50 (JAK2; read-out: JAK2 inhibitory activity IC50, class symbols)
1 | CCN=S(=O)(C1CC1)N1CC(CC#N)(n2cc(-c3ncnc4[nH]ccc34)cn2)C1 (centres unmarked) [LW104-M] | 194 nM | – | –
2 | CC(N=[S@@](C)(=O)N1CC(CC#N)(n2cc(-c3ncnc4[nH]ccc34)cn2)C1)c1ccccc1 (stereo in doubt) [LW104-G] | – | 10 to 100 nM | –
3 | CN=S(C)(=O)N1CC(CC#N)(n2cc(-c3ncnc4[nH]ccc34)cn2)C1 (centres unmarked) [LW104-F] | 145 nM | 0.1 to 10 nM | –
4 | N#CCC1(n2cc(-c3ncnc4[nH]ccc34)cn2)CN(S(=N)(=O)c2ccccc2)C1 (centres unmarked) [LW104-C] | 427 nM | 10 to 100 nM | –
5 | CCS(=O)(=NC)N1CC(CC#N)(n2cc(-c3ncnc4[nH]ccc34)cn2)C1 (centres unmarked) [LW104-P] | 216 nM | 10 to 100 nM | –
6 | CCS(=N)(=O)N1CC(CC#N)(n2cc(-c3ncnc4[nH]ccc34)cn2)C1 (single isomer, unassigned) [LW104-J] | 116 nM | 0.1 to 10 nM | –
7 | CS(=N)(=O)N1CC(CC#N)(n2cc(-c3ncnc4[nH]ccc34)cn2)C1 (centres unmarked) [LW104-A] | 98.3 nM | 0.1 to 10 nM | –
8 | N#CCC1(n2cc(-c3ncnc4[nH]ccc34)cn2)CN(S(=N)(=O)C2CC2)C1 (centres unmarked) [LW104-E] | 187 nM | 0.1 to 10 nM | –
9 | CCS(=N)(=O)N1CC(CC#N)(n2cc(-c3ncnc4[nH]ccc34)cn2)C1 (centres unmarked) [LW104-B] | 136 nM | 0.1 to 10 nM | –
10 | CCS(=O)(=NC1CC1)N1CC(CC#N)(n2cc(-c3ncnc4[nH]ccc34)cn2)C1 (centres unmarked) [LW104-O] | 294 nM | – | –
11 | N#CCC1(n2cc(-c3ncnc4[nH]ccc34)cn2)CN(S(=O)(=NC2CC2)C2CC2)C1 (centres unmarked) [LW104-N] | 203 nM | 0.1 to 10 nM | –
12 | CC(C)S(=N)(=O)N1CC(CC#N)(n2cc(-c3ncnc4[nH]ccc34)cn2)C1 (centres unmarked) [LW104-D] | 190 nM | – | –
13 | CCS(=N)(=O)N1CC(CC#N)(n2cc(-c3ncnc4[nH]ccc34)cn2)C1 (single isomer, unassigned) [LW104-K] | 69.3 nM | – | 0.1 to 10 nM
14 | CC(C)N=S(C)(=O)N1CC(CC#N)(n2cc(-c3ncnc4[nH]ccc34)cn2)C1 (centres unmarked) [LW104-I] | 649 nM | 10 to 100 nM | –
15 | CN=S(=O)(C1CC1)N1CC(CC#N)(n2cc(-c3ncnc4[nH]ccc34)cn2)C1 (centres unmarked) [LW104-L] | 158 nM | 0.1 to 10 nM | –
